Laboratory results taken from patent US20240343681A1, “MOLECULES HAVING PESTICIDAL UTILITY AND INTERMEDIATES AND PROCESSES RELATED THERETO” (priority 2021, published 2024).

Experiments:
[1] = system: Beet Armyworm (Spodoptera exigua, LAPHEG) second instar larva; assay: Bioassay on beet armyworm (BAW), 128-well diet tray assay; type: in vivo; settings: 50 μg/cm^2 on artificial diet, 25° C., five days
Outline: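 Test molecule in 90:10 acetone–water applied at 50 μg/cm^2 onto 1 mL artificial diet and dried; one second-instar larva per well, eight wells. Held 5 days at 25 °C, 14:10 light–dark; percent mortality averaged over the eight wells.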

[2] = system: Yellow Fever Mosquito (Aedes aegypti, AEDSAE) larvae; assay: Bioassay on yellow fever mosquito (YFM), 96-well plate larval assay; type: in vivo; settings: 4000 ppm (master plate solution), about 1 day-old larvae, 3 days
target pests = assay: Screening of separated stereoisomer peaks against target pests; type: in vivo; settings: SFC-separated R,R and S,S isomers (F107 and F108)
Method: trans-rac-N-(3-Amino-4-chlorophenyl)-2,2-dichloro-3-(4-fluoro-3-(trifluoromethyl)phenyl)cyclopropane-1-carboxamide (C20, 1.0 g, 2.27 mmol) was added to a solution of 2,6-difluoronicotinic acid (0.36 g, 2.27 mmol) in toluene (25 mL). Pyridine (0.72 mL, 9.05 mmol) was added dropwise, and 2,4,6-tripropyl-1,3,5,2,4,6-trioxatriphosphinane 2,4,6-trioxide as a 50% solution in ethyl acetate (5.8 mL, 9.05 mmol) was added at room temperature. The reaction mixture was warmed to 110° C. and stirred for 16 hours, cooled to room temperature, and concentrated under reduced pressure. The residue was diluted with water (80 mL) and was extracted with ethyl acetate (2×80 mL). The combined organic phases were washed with saturated aqueous sodium chloride, dried over anhydrous sodium sulfate, and filtered, and the filtrate was concentrated under reduced pressure.

Row | SMILES | melting point [°C] | activity against BAW (percent mortality, averaged over eight wells) [1] | activity against YFM (scored based on mortality) [2] | efficacy against target pests, Peak-2 versus Peak-1 (target pests)
1 | O=C(Nc1cc(NC(=O)C2C(c3cc(Cl)cc(Cl)c3)C2(Cl)Cl)ccc1Cl)c1cccc(=O)[nH]1 (racemic) | 312 to 316 | – | – | –
2 | O=C(Nc1cc(NC(=O)C2C(c3cc(Cl)cc(Cl)c3)C2(Cl)Cl)ccc1Cl)c1cc(C(F)(F)F)cc(C(F)(F)F)c1 (racemic) | 109 to 113 | – | – | –
3 | COCC(=O)Nc1ccc(C(=O)Nc2cc(NC(=O)[C@H]3[C@H](c4ccc(F)c(C(F)(F)F)c4)C3(Cl)Cl)ccc2Cl)c(C)c1F (racemic) [F115, trans-rac-N-(2-Chloro-5-(2,2-dichloro-3-(4-fluoro-3-(trifluoromethyl)phenyl)cyclopropane-1-carboxamido)phenyl)-3-fluoro-4-(2-methoxyacetamido)-2-methylbenzamide] | – | exhibited activity | exhibited activity | –
4 | Cc1c(C(=O)Nc2cc(NC(=O)[C@H]3[C@H](c4ccc(F)c(C(F)(F)F)c4)C3(Cl)Cl)ccc2Cl)ccc(NC(=O)COCC(F)(F)F)c1F (racemic) [F116, trans-rac-N-(2-Chloro-5-(2,2-dichloro-3-(4-fluoro-3-(trifluoromethyl)phenyl)cyclopropane-1-carboxamido)phenyl)-3-fluoro-2-methyl-4-(2-(2,2,2-trifluoroethoxy)acetamido)benzamide] | – | exhibited activity | exhibited activity | –
5 | CC(=O)Nc1ccc(C(=O)Nc2cc(NC(=O)[C@H]3[C@H](c4ccc(F)c(C(F)(F)F)c4)C3(Cl)Cl)ccc2Cl)c(F)c1 (racemic) [F117, trans-rac-4-Acetamido-N-(2-chloro-5-(2,2-dichloro-3-(4-fluoro-3-(trifluoromethyl)phenyl)cyclopropane-1-carboxamido)phenyl)-2-fluorobenzamide] | – | exhibited activity | exhibited activity | –
6 | COCC(=O)Nc1ccc(C(=O)Nc2cc(NC(=O)[C@H]3[C@H](c4ccc(F)c(C(F)(F)F)c4)C3(Cl)Cl)ccc2Cl)c(F)c1 (racemic) [F118, trans-rac-N-(2-Chloro-5-(2,2-dichloro-3-(4-fluoro-3-(trifluoromethyl)phenyl)cyclopropane-1-carboxamido)phenyl)-2-fluoro-4-(2-methoxyacetamido)benzamide] | – | exhibited activity | exhibited activity | –
7 | O=C(Nc1cc(NC(=O)[C@H]2[C@H](c3ccc(F)c(C(F)(F)F)c3)C2(Cl)Cl)ccc1Cl)c1ccc(F)nc1F (single isomer, unassigned) [F107] | – | – | – | significantly greater than Peak-1
8 | O=C(Nc1c(F)ccc(NC(=O)[C@H]2[C@H](c3cc(Cl)c(Cl)c(Cl)c3)C2(Cl)Cl)c1F)c1ccc(F)cc1F [F10, N-(3-((1R,3R)-2,2-dichloro-3-(3,4,5-trichlorophenyl)cyclopropane-1-carboxamido)-2,6-difluorophenyl)-2,4-difluorobenzamide] | – | exhibited activity | exhibited activity | –
9 | O=C(Nc1c(F)ccc(NC(=O)[C@H]2[C@H](c3cc(Cl)c(Cl)c(Cl)c3)C2(Cl)Cl)c1F)C1CCCO1 (stereo partly drawn) [F11, N-(3-((1R,3R)-2,2-Dichloro-3-(3,4,5-trichlorophenyl)cyclopropane-1-carboxamido)-2,6-difluorophenyl)tetrahydrofuran-2-carboxamide] | – | exhibited activity | exhibited activity | –
10 | CCCC(=O)Nc1c(F)ccc(NC(=O)[C@H]2[C@H](c3cc(Cl)c(Cl)c(Cl)c3)C2(Cl)Cl)c1F [F14, (1R,3R)—N-(3-Butyramido-2,4-difluorophenyl)-2,2-dichloro-3-(3,4,5-trichlorophenyl)cyclopropane-1-carboxamide] | – | exhibited activity | exhibited activity | –
11 | CC(CC(=O)Nc1cccc(NC(=O)[C@H]2[C@H](c3cc(Cl)cc(Cl)c3)C2(Cl)Cl)c1F)C(F)(F)F (stereo partly drawn) [F15, (1R,3R)-2,2-Dichloro-3-(3,5-dichlorophenyl)-N-(2-fluoro-3-(4,4,4-trifluoro-3-methylbutanamido)phenyl)cyclopropane-1-carboxamide] | – | exhibited activity | exhibited activity | –
12 | O=C(Nc1cccc(NC(=O)[C@H]2[C@H](c3cc(Cl)cc(Cl)c3)C2(Cl)Cl)c1F)c1ccc(F)cc1F [F16, N-(3-((1R,3R)-2,2-Dichloro-3-(3,5-dichlorophenyl)cyclopropane-1-carboxamido)-2-fluorophenyl)-2,4-difluorobenzamide] | – | exhibited activity | exhibited activity | –
13 | CCOC(C)C(=O)Nc1cccc(NC(=O)[C@H]2[C@H](c3cc(Cl)cc(Cl)c3)C2(Cl)Cl)c1F (stereo partly drawn) [F18, (1R,3R)-2,2-Dichloro-3-(3,5-dichlorophenyl)-N-(3-(2-ethoxypropanamido)-2-fluorophenyl)cyclopropane-1-carboxamide] | – | exhibited activity | exhibited activity | –
14 | O=C(Nc1cccc(NC(=O)C(F)(F)C(F)(F)C(F)(F)F)c1F)[C@H]1[C@H](c2cc(Cl)cc(Cl)c2)C1(Cl)Cl [F19, (1R,3R)-2,2-Dichloro-3-(3,5-dichlorophenyl)-N-(2-fluoro-3-(2,2,3,3,4,4,4-heptafluorobutanamido)phenyl)cyclopropane-1-carboxamide] | – | exhibited activity | exhibited activity | –
15 | CCCC(=O)Nc1cccc(NC(=O)[C@H]2[C@H](c3cc(Cl)cc(Cl)c3)C2(Cl)Cl)c1F [F20, (1R,3R)—N-(3-Butyramido-2-fluorophenyl)-2,2-dichloro-3-(3,5-dichlorophenyl)cyclopropane-1-carboxamide] | – | exhibited activity | exhibited activity | –
16 | CC(C#N)C(=O)Nc1cccc(NC(=O)[C@H]2[C@H](c3cc(Cl)cc(Cl)c3)C2(Cl)Cl)c1F (stereo partly drawn) [F22, (1R,3R)-2,2-Dichloro-N-(3-(2-cyanopropanamido)-2-fluorophenyl)-3-(3,5-dichlorophenyl)cyclopropane-1-carboxamide] | – | exhibited activity | exhibited activity | –
17 | O=C(Nc1cc(NC(=O)[C@H]2[C@H](c3ccc(F)c(C(F)(F)F)c3)C2(Cl)Cl)ccc1Cl)c1cc(F)cc(F)c1 [F100, N-(2-Chloro-5-((1R,3R)-2,2-dichloro-3-(4-fluoro-3-(trifluoromethyl)phenyl)cyclopropane-1-carboxamido)phenyl)-3,5-difluorobenzamide] | – | exhibited activity | exhibited activity | –
18 | O=C(Nc1cc(NC(=O)[C@H]2[C@H](c3cc(Cl)cc(Cl)c3)C2(Cl)Cl)ccc1Cl)c1ncc(F)cc1F [F106, N-(2-Chloro-5-((1R,3R)-2,2-dichloro-3-(3,5-dichlorophenyl)cyclopropane-1-carboxamido)phenyl)-3,5-difluoropicolinamide] | – | exhibited activity | exhibited activity | –
19 | O=C(Nc1cc(NC(=O)[C@H]2[C@H](c3ccc(F)c(C(F)(F)F)c3)C2(Cl)Cl)ccc1Cl)c1cnc(F)c(F)c1 [F109, N-(2-Chloro-5-((1R,3R)-2,2-dichloro-3-(4-fluoro-3-(trifluoromethyl)phenyl)cyclopropane-1-carboxamido)phenyl)-5,6-difluoronicotinamide] | – | exhibited activity | exhibited activity | –
